Data: US20170120592A1, “INK JET RECORDING METHOD AND INK JET RECORDING APPARATUS” (CANON KABUSHIKI KAISHA, priority 2015, published 2017)

Test: Water-solubility of dye
Assay type: physicochemical
Conditions: maximum mass of the dye in a sodium salt form that can be dissolved in 100 g of pure water at 20° C.
In the case of C.I. Direct Red 249, the “water-solubility of the dye” value is reported as “(21 g)”. For C.I. Direct Red 289, the “water-solubility of the dye” value was “(14 g)”. With CCN(Cc1cccc(S(=O)(=O)[O-])c1)c1ccc(C(=C2C=CC(=[N+](CC)Cc3cccc(S(=O)(=O)[O-])c3)C=C2)c2ccccc2S(=O)(=O)[O-])cc1.[Na+].[Na+] [C.I. Acid Blue 9] the “water-solubility of the dye” value was “Blue 9 (40 g)”. In the case of C.I. Direct Blue 199, the “water-solubility of the dye” value is reported as “(30 g)”. For C.I. Direct Yellow 86, the “water-solubility of the dye” value was “(10 g)”.
